According to publication PMC6934184, “Selective DNA-PKcs inhibition extends the therapeutic index of localized radiotherapy and chemotherapy” (The Journal of Clinical Investigation, 2019):

Molecular target: T1, RPS6KA2 (RSK3) (Homo sapiens, UniProt Q15349)
T1 construct: purchased Thermo Fisher Scientific (Life Technologies) SelectScreen
Experiment: SelectScreen Z'LYTE
Type: biochemical
Summary of the method: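 SelectScreen broad panel; activity (Z'LYTE, Adapta) plus binding formats. ATP: Km app for CSF1R Z'LYTE; 10 for CAMK1 Adapta. Readout = % per kinase.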

T1 sequence (Q15349 whole entry): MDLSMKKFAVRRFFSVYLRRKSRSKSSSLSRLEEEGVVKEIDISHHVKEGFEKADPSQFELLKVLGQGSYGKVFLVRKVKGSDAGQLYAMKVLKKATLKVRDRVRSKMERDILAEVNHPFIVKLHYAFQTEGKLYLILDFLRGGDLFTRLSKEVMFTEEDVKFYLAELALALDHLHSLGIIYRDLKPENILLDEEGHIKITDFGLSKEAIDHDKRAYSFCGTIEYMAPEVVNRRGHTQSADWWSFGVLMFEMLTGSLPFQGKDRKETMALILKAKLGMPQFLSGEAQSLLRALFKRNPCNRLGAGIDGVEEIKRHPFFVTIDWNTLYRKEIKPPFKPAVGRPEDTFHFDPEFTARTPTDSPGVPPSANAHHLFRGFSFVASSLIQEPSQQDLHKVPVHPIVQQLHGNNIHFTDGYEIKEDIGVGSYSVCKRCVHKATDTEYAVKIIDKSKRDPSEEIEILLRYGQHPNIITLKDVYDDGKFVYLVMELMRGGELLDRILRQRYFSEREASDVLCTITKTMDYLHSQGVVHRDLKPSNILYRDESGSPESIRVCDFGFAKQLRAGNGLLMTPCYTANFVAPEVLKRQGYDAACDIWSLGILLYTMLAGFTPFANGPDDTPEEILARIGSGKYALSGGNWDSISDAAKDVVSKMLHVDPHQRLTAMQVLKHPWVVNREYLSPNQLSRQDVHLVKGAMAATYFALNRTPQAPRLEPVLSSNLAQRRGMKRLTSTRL

`CN(C(=O)CN1CCOCC1)c1ccc2sc3c(-c4cccc5c(=O)cc(N6CC7CCC(C6)O7)oc45)cccc3c2c1` [NU5455] showed an inhibition at 1 µM of 10.8%.
